Inconclusive results and toxic doses are left out. Rule as the data show it: active = T/C of 150% or more; inactive = T/C below 125%.
Tested on: L1210 leukemia ip in BDF1 mice, survival T/C
Assay: NCI In Vivo Anticancer Drug Screen. Data for tumor model L1210 Leukemia (intraperitoneal) in B6D2F1 (BDF1) mice
Conditions: endpoint: mean survival time, higher = longer survival
In short: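 Each compound was tested against a transplantable tumor grown in mice. The endpoint was survival, with treated animals benchmarked against vehicle controls as a simple ratio.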

[1] = dose: 100.0 mg/kg/injection, schedule: Q01DX001 (ip), vehicle: carboxymethylcellulose (CMC)
[2] = dose: 200.0 mg/kg/injection, schedule: Q01DX001 (ip), vehicle: carboxymethylcellulose (CMC)
[3] = dose: 400.0 mg/kg/injection, schedule: Q01DX001 (ip), vehicle: carboxymethylcellulose (CMC)

Measured: T/C

CCCCCC(C)NCCOC(=O)c1ccc(N)cc1 (stereo not drawn)
inactive: dose: 75.0 mg/kg/injection, schedule: Q01DX001 (ip), vehicle: other 98 % of control

O=P(NC1CCCCC1)(OCc1ccccc1)N(CCCl)CCCl (stereo not drawn)
inactive: dose: 10.0 mg/kg/injection, schedule: Q01DX Z (ip), vehicle: water 98 % of control | dose: 20.0 mg/kg/injection, schedule: Q01DX Z (ip), vehicle: water 91 % of control | dose: 40.0 mg/kg/injection, schedule: Q01DX Z (ip), vehicle: water 96 % of control | dose: 80.0 mg/kg/injection, schedule: Q01DX009 (ip), vehicle: water 93 % of control | dose: 160.0 mg/kg/injection, schedule: Q01DX009 (ip), vehicle: water 89 % of control

CC(=O)c1ccc(S(=O)(=O)NCCCc2c(C)nc(NS(=O)(=O)c3ccc(C(C)=O)cc3)[nH]c2=O)cc1
inactive: [1] 98 % of control | [2] 96 % of control | [3] 93 % of control

O=C(Nc1ccc(N=Nc2ccccc2)cc1)Nc1cc([N+](=O)[O-])ccc1F
inactive: dose: 100.0 mg/kg/injection, schedule: Q04DX003 (ip), vehicle: Klucel (hydroxypropylcellulose) (HPC) 86 % of control | dose: 200.0 mg/kg/injection, schedule: Q04DX003 (ip), vehicle: Klucel (hydroxypropylcellulose) (HPC) 86 % of control | dose: 400.0 mg/kg/injection, schedule: Q04DX003 (ip), vehicle: Klucel (hydroxypropylcellulose) (HPC) 91 % of control

CN(C)C(=O)CCCc1ccc(N(CCCl)CCCl)cc1
inactive: dose: 4.0 mg/kg/injection, schedule: Q12HX018 (ip), vehicle: other 108 % of control | dose: 6.0 mg/kg/injection, schedule: Q12HX018 (ip), vehicle: other 97 % of control | dose: 8.0 mg/kg/injection, schedule: Q12HX018 (ip), vehicle: other 103 % of control | [1] 123 % of control | [2] 118 % of control | [3] 103 % of control
